Experimental data: patent US9073911B2, “Pyrazole derivatives” (HOFFMANN-LA ROCHE INC., priority 2011, dated 2015)
Counter-ions that a name gives are not always drawn.

How the values were obtained:
mouse TAAR1 = mouse TAAR1 (Mus musculus (Mouse), UniProt Q923Y8); assay: Radioligand binding assay on mouse TAAR1; conditions: membranes of HEK-293 cells stably expressing mouse TAAR1; first value of cell mouse/rat
Protocol: (§1) Construction of TAAR Expression Plasmids and Stably Transfected Cell Lines
(§2) For the construction of expression plasmids the coding sequences of human, rat and mouse TAAR 1 were amplified from genomic DNA essentially as described by Lindemann et al.. The Expand High Fidelity PCR System (Roche Diagnostics) was used with 1.5 mM Mg^2+ and purified PCR products were cloned into pCR2.1-TOPO cloning vector (Invitrogen) following the instructions of the manufacturer. PCR products were subcloned into the pIRESneo2 vector (BD Clontech, Palo Alto, Calif.), and expression vectors were sequence verified before introduction in cell lines.
(§3) HEK293 cells (ATCC # CRL-1573) were cultured essentially as described by Lindemann et al. (2005). For the generation of stably transfected cell lines HEK293 cells were transfected with the pIRESneo2 expression plasmids containing the TAAR coding sequences (described above) with Lipofectamine 2000 (Invitrogen) according to the instructions of the manufacturer, and 24 hrs post transfection the culture medium was supplemented with 1 mg/ml G418 (Sigma, Buchs, Switzerland). After a culture period of about 10 d clones were isolated, expanded and tested for responsiveness to trace amines (all compounds purchased from Sigma) with the cAMP Biotrak Enzyme immunoassay (EIA) System (Amersham) following the non-acetylation EIA procedure provided by the manufacturer.
Radioligand Binding Assay on Mouse TAAR1
(§4) Membrane Preparation and Radioligand Binding.
HEK-293 cells stably expressing mouse TAAR1 were maintained at 37° C. and 5% CO2 in DMEM high glucose medium, containing fetal calf serum (10%, heat inactivated for 30 min at 56° C.), penicillin/streptomycin (1%), and 375 μg/ml geneticin (Gibco). Cells were released from culture flasks using trypsin/EDTA, harvested, washed twice with ice-cold PBS (without Ca^2+ and Mg^2+), pelleted at 1,000 rpm for 5 min at 4° C., frozen and stored at −80° C. Frozen pellets were suspended in 20 ml HEPES-NaOH (20 mM, pH 7.4) containing 10 mM EDTA and homogenized with a Polytron (PT 6000, Kinematica) at 14,000 rpm for 20 s. The homogenate was centrifuged at 48,000×g for 30 min at 4° C. Subsequently, the supernatant was removed and discarded, and the pellet resuspended in 20 ml HEPES-NaOH (20 mM, pH 7.4) containing 0.1 mM EDTA using the Polytron (20 s at 14,000 rpm). This procedure was repeated and the final pellet resuspended in HEPES-NaOH containing 0.1 mM EDTA and homogenized using the Polytron. Typically, aliquots of 2 ml membrane portions were stored at −80° C. With each new membrane batch the dissociation constant (Kd) was determined via a saturation curve. The TAAR1 radioligand ^3[H]—(S)-4-[(ethyl-phenyl-amino)-methyl]-4,5-dihydro-oxazol-2-ylamine (described in WO 2008/098857) was used at a concentration equal to the calculated Kd value, that was usually around 0.7 nM, resulting in the binding of approximately 0.5% of the radioligand and a specific binding representing approximately 70% of the total binding. Nonspecific binding was defined as the amount of ^3[H]—(S)-4-[(ethyl-phenyl-amino)-methyl]-4,5-dihydro-oxazol-2-ylamine bound in the presence of 10 μM unlabeled ligand. All compounds were tested at a broad range of concentrations ([…]) in duplicates. […] The 96 deep well plates were incubated for 1 hr at 4° C. Incubations were terminated by rapid filtration through Unifilter-96 plates (Packard Instrument Company) and glass filters GF/C (Perkin Elmer) presoaked for 1 hr in polyethylenimine (0.3%) and washed 3 times with 1 ml of cold binding buffer. After addition of 45 μl of Microscint 40 (PerkinElmer) the Unifilter-96 plate was sealed and after 1 hr the radioactivity counted using a TopCount Microplate Scintillation Counter (Packard Instrument Company).

rat TAAR1 = rat TAAR1 (Rattus norvegicus (Rat), UniProt Q923Y9); assay: Radioligand binding assay on rat TAAR1; conditions: membranes of HEK-293 cells stably expressing rat TAAR1; second value of cell mouse/rat
Sequence of rat TAAR1 (Q923Y9 whole entry): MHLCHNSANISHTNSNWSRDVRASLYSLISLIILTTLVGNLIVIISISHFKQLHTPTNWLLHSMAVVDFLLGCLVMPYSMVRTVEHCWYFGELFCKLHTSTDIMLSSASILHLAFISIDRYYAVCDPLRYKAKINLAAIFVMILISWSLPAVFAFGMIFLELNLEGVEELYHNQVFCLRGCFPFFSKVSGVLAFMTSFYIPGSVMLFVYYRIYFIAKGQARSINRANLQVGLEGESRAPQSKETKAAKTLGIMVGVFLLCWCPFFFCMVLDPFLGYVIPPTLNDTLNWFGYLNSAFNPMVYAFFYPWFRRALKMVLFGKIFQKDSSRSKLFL
Protocol: as §1, §2, §3
Radioligand Binding Assay on rat TAAR1
as §4
HEK-293 cells stably expressing rat TAAR1 were maintained at 37° C. and 5% CO2 in DMEM high glucose medium, containing fetal calf serum (10%, heat inactivated for 30 min at 56° C.), penicillin/streptomycin (1%), and 375 μg/ml geneticin (Gibco). Cells were released from culture flasks using trypsin/EDTA, harvested, washed twice with ice-cold PBS (without Ca^2+ and Mg^2+), pelleted at 1,000 rpm for 5 min at 4° C., frozen and stored at −80° C. Frozen pellets were suspended in 20 ml HEPES-NaOH (20 mM, pH 7.4) containing 10 mM EDTA and homogenized with a Polytron (PT 6000, Kinematica) at 14,000 rpm for 20 s. The homogenate was centrifuged at 48,000×g for 30 min at 4° C. Subsequently, the supernatant was removed and discarded, and the pellet resuspended in 20 ml HEPES-NaOH (20 mM, pH 7.4) containing 0.1 mM EDTA using the Polytron (20 s at 14,000 rpm). This procedure was repeated and the final pellet resuspended in HEPES-NaOH containing 0.1 mM EDTA and homogenized using the Polytron. Typically, aliquots of 2 ml membrane portions were stored at −80° C. With each new membrane batch the dissociation constant (Kd) was determined via a saturation curve.
Nonspecific binding was defined as the amount of ^3-[H]-(S)-4-[(ethyl-phenyl-amino)-methyl]-4,5-dihydro-oxazol-2-ylamine bound in the presence of 10 μM unlabeled ligand. All compounds were tested at a broad range of concentrations (10 pM to 10 μM) in duplicates. […] The 96 deep well plates were incubated for 1 hr at 4° C. Incubations were terminated by rapid filtration through Unifilter-96 plates (Packard Instrument Company) and glass filters GF/C (Perkin Elmer) presoaked for 1 hr in polyethylenimine (0.3%) and washed 3 times with 1 ml of cold binding buffer. After addition of 45 μl of Microscint 40 (PerkinElmer) the Unifilter-96 plate was sealed and after 1 hr the ratioactivity counted using a TopCount Microplate Scintillation Counter (Packard Instrument Company).

Sequence of mouse TAAR1 (Q923Y8 whole entry): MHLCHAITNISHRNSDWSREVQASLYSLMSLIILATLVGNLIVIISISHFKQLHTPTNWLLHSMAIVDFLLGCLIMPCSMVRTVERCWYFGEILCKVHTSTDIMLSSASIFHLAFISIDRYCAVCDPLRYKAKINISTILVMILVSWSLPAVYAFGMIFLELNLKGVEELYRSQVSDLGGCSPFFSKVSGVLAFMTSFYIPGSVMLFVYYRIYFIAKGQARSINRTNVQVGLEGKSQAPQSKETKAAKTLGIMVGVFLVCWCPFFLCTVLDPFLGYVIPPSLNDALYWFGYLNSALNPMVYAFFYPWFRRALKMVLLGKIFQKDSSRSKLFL

Compound | Ki (mouse TAAR1) [µM] | Ki (rat TAAR1) [µM]
O=C(Nc1ccc([C@H]2CNCCO2)cc1)c1cc(-c2cccc(Cl)c2)[nH]n1 [Example 2, (S)-3-(3-chlorophenyl)-N-(4-(morpholin-2-yl)phenyl)-1H-pyrazole-5-carboxamide hydrochloride] | 0.0003 | 0.0004
O=C(Nc1ccc([C@H]2CNCCO2)cc1)c1ccn(-c2cncc(C(F)(F)F)n2)n1 [Example 52, (S)—N-(4-(Morpholin-2-yl)phenyl)-1-(6-(trifluoromethyl)pyrazin-2-yl)-1H-pyrazole-3-carboxamide hydrochloride] | 0.0084 | 0.0074
CCn1nc(-c2ccc(C#N)cc2)cc1C(=O)Nc1ccc([C@H]2CNCCO2)cc1 [Example 26, (S)-3-(4-cyanophenyl)-1-ethyl-N-(4-(morpholin-2-yl)phenyl)-1H-pyrazole-5-carboxamide hydrochloride] | 0.0734 | 0.0316
N#Cc1cccc(-c2cc(C(=O)Nc3ccc([C@H]4CNCCO4)cc3)[nH]n2)c1F [Example 43, (S)-3-(3-Cyano-2-fluorophenyl)-N-(4-(morpholin-2-yl)phenyl)-1H-pyrazole-5-carboxamide hydrochloride] | 0.0016 | 0.011
O=C(Nc1ccc([C@@H]2CNCCO2)cc1)c1ccn(-c2ccc(OC(F)F)cc2)n1 [Example 46, (R)-1-(4-(Difluoromethoxy)phenyl)-N-(4-(morpholin-2-yl)phenyl)-1H-pyrazole-3-carboxamide hydrochloride] | 0.004 | 0.0006
COc1cccc(-c2cc(C(=O)Nc3ccc([C@@H]4CNCCO4)cc3)[nH]n2)c1 [Example 16, (R)-3-(3-methoxyphenyl)-N-(4-(morpholin-2-yl)phenyl)-1H-pyrazole-5-carboxamide hydrochloride] | 0.0013 | 0.0014
O=C(Nc1ccc([C@H]2CNCCO2)cc1)c1ccnn1-c1ccccc1 [Example 30, (S)—N-(4-(Morpholin-2-yl)phenyl)-1-phenyl-1H-pyrazole-5-carboxamide hydrochloride] | 0.143 | 1.32
O=C(Nc1ccc([C@H]2CNCCO2)cc1)c1ccn(-c2cncc(Cl)n2)n1 [Example 48, (S)-1-(6-Chloropyrazin-2-yl)-N-(4-(morpholin-2-yl)phenyl)-1H-pyrazole-3-carboxamide hydrochloride] | 0.0086 | 0.0118
Cn1nc(-c2cccc(C#N)c2)cc1C(=O)Nc1ccc([C@H]2CNCCO2)cc1 [Example 24, (S)-3-(3-cyanophenyl)-1-methyl-N-(4-(morpholin-2-yl)phenyl)-1H-pyrazole-5-carboxamide hydrochloride] | 0.0067 | 0.0142
O=C(Nc1ccc([C@H]2CNCCO2)cc1)c1cc(-c2ccccc2Cl)n[nH]1 [Example 10, (S)-3-(2-chlorophenyl)-N-(4-(morpholin-2-yl)phenyl)-1H-pyrazole-5-carboxamide hydrochloride] | 0.0005 | 0.0026
Cn1nc(C(=O)Nc2ccc([C@H]3CNCCO3)cc2)cc1-c1ccccc1 [Example 18, (S)-1-methyl-N-(4-(morpholin-2-yl)phenyl)-5-phenyl-1H-pyrazole-3-carboxamide hydrochloride] | 0.0017 | 0.0254
O=C(Nc1ccc([C@H]2CNCCO2)cc1)c1ccn(-c2ccc(F)cc2)n1 [Example 29, (S)-1-(4-Fluorophenyl)-N-(4-(morpholin-2-yl)phenyl)-1H-pyrazole-3-carboxamide hydrochloride] | 0.0011 | 0.0024
O=C(Nc1ccc([C@H]2CNCCO2)cc1)c1cc(-c2ccc(F)cc2)[nH]n1 [Example 3, (S)-3-(4-fluorophenyl)-N-(4-(morpholin-2-yl)phenyl)-1H-pyrazole-5-carboxamide hydrochloride] | 0.0008 | 0.0027
COc1ccc(-c2cc(C(=O)Nc3ccc([C@H]4CNCCO4)cc3)[nH]n2)cc1 [Example 7, (S)-3-(4-methoxyphenyl)-N-(4-(morpholin-2-yl)phenyl)-1H-pyrazole-5-carboxamide hydrochloride] | 0.0012 | 0.0049
